Source: patent US20200054657A1, “Compositions of Matter and Methoods to Treat Cancer” (priority 2018, published 2020)
Entries after “also recorded” stand apart in the source; their conditions may differ.

Experiments:
[1] = system: HT29 human colonic cancer cells; assay: viability of HT29 colonic cancer cells; details: HT29 (FIG. 7); for enhancing effect of Andrographolide on the response: in the presence of Andrographolide; for reduction in viability: single agents
[2] = system: AsPC-1 human pancreatic cancer cells; assay: viability of AsPC-1 pancreatic cancer cells; assay type: cell-based; details: for enhancing effect of Andrographolide on the response: in the presence of Andrographolide; for enhancing effect of Andrographolide on the response / reduction in viability: AsPC-1 (FIG. 6); for comparison of effects on cell viability / reduction in viability: single agents; for comparison of effects on cell viability: AsPC-1 (FIG. 5)
Method: Andrographolide at 1 mM and Frondoside A (between 1 mM and 3 mM) were assayed for anticancer effects on the viability of the two human pancreatic cancer cell lines, AsPC-1 and S2013.

[3] = pharmacokinetics study by oral route, LC/MS/MS detection in the blood; assay type: in vivo, humans
Method: In a pharmacokinetics and pharmacodynamics study of Frondoside A by oral route in humans, as are known to those skilled in the arts, dosage of 10 milligrams of Frondoside A is delivered in an enteric coated gelatin capsule, as are known to those skilled in the arts and is detected by LC/MS/MS in the blood up to 20 hours later. In a pharmacokinetics and pharmacodynamics study in a huma of Frondoside A by oral route in humans, a dosage of 10 milligrams of Frondoside A in a capsule without the benefit of enteric coated capsule delivery, is not detected by LC/MS/MS in the blood up to 20 hours later.

[4] = LD50 in mice
[5] = mice; cited from earlier work
[6] = lack of change in CBC, liver function tests, body weight; cited from earlier work
[7] = target: PAK-1 kinase (Homo sapiens, UniProt Q13153); details: in vitro; cited from earlier work
Sequence of PAK-1 kinase (Q13153 whole entry): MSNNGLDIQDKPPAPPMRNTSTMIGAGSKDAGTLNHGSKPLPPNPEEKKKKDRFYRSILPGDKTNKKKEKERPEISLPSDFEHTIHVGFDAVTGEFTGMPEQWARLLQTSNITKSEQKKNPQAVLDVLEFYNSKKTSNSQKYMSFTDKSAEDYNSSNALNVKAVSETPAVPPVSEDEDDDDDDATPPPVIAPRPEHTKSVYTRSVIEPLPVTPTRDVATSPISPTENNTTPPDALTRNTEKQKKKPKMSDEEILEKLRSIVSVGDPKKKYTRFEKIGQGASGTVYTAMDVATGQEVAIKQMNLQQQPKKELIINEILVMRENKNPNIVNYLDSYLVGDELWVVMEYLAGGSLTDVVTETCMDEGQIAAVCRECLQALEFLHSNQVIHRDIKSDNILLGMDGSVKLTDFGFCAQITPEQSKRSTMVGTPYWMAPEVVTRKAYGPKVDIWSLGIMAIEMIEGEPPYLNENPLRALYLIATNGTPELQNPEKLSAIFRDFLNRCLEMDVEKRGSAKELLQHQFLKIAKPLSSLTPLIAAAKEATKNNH

[8] = system: CCRF-CEM; assay: viability of CCRF-CEM acute leukemia cells; assay type: cell-based; details: Homo sapiens, Andrographolide (50 μM) alone, read-out: cell viability
Method: (§1) FIG. 3. […] Andrographolide (50 μM) alone reduced cell viability to 54.3±2.8% in CCRF-CEM cells and to 68.5±1.4%. *** =P<0.001.
(§2) Andrographolide (50 μM) and Frondoside A (between 1 and 3 mM) was assayed for anticancer effects through determining cell viability of the two human, acute leukemia cell lines CCRF-CEM and THP-1. […] Andrographolide (50 μM) alone reduced cell viability to 54.3±2.8% in CCRF-CEM cells and to 68.5±1.4%. (FIG. 3)

[9] = system: THP-1; assay: viability of THP-1 acute leukemia cells; assay type: cell-based; details: Homo sapiens; Andrographolide (50 μM) alone; second cell line not named in the sentence (THP-1)
Method: as §1, §2

SMILES	enhancing effect of Andrographolide on the response [1]	reduction in viability [1]	enhancing effect of Andrographolide on the response [2]	comparison of effects on cell viability [2]	reduction in viability [2]	further results
CCn1c(=O)c(-c2ccc(-c3cncs3)cc2Cl)cc2cnc(Nc3ccc(N4CCN(C)CC4)cc3)nc21 [FRAX597]	no enhancing effect; also recorded: tendency of the reduced effectiveness	modest dose responsive reduction in viability	no enhancing effect; also recorded: tendency of the reduced effectiveness	less potent anti-cancer compounds	dose responsive reduction in viability	–
CO[C@@H]1[C@@H](O)[C@H](O[C@@H]2[C@@H](O)[C@H](O[C@H]3[C@H](O)[C@@H](O[C@@H]4OC[C@@H](O)[C@H](O)[C@H]4O)[C@H](O[C@H]4[C@H](OC5CC[C@]6(C)[C@H]7CCC89C(=O)O[C@@](C)(CCCC(C)C)C8[C@@H](OC(C)=O)C[C@@]9(C)C7=CC[C@H]6C5(C)C)OC[C@@H](OS(=O)(=O)[O-])[C@@H]4O)O[C@@H]3C)OC[C@H]2O)O[C@H](CO)[C@H]1O.[Na+] (stereo partly drawn) [Frondoside A]	–	–	–	–	–	detected by LC/MS/MS in the blood up to 20 hours later ([3]; 10 milligrams in a capsule without enteric coating, human): not detected; detected by LC/MS/MS in the blood ([3]; 10 milligrams in an enteric coated gelatin capsule, humans): up to 20 hours; LD50 relative to the dose used therapeutically [4]: more than 1000 times; LD50 [5]: 9.9 mg/kg; toxic effects at therapeutic doses [6]: does not have toxic effects at therapeutic doses; PAK-1 inhibition [7]: inhibitor of PAK-1 kinase
C=C1CC[C@@H]2[C@](C)(CO)[C@H](O)CC[C@@]2(C)[C@@H]1C/C=C1/C(=O)OC[C@H]1O [Andrographolide]	–	–	–	–	–	viability at 50 µM [8]: 54.3 ± 2.8%; viability at 50 µM [9]: 68.5 ± 1.4%
CCn1c(=O)c(-c2ccc(-c3cncc(C)n3)cc2Cl)cc2cnc(NCCC3CCN(C)CC3)nc21 [FRAX1036]	no enhancing effect	modest dose responsive reduction in viability	no enhancing effect	less potent anti-cancer compounds	dose responsive reduction in viability	–
